From paper PMC5681660, “Reduced hepatitis B and D viral entry using clinically applied drugs as novel inhibitors of the bile acid transporter NTCP” (Scientific Reports, 2017) come the findings set out here.

Where a name gives a salt, the structure may show the parent alone. Where only a bound is given, the exact number is not on record here.

The target of the test is T1, human NTCP (Homo sapiens, UniProt Q14973).
T1 sequence (Q14973 1-349): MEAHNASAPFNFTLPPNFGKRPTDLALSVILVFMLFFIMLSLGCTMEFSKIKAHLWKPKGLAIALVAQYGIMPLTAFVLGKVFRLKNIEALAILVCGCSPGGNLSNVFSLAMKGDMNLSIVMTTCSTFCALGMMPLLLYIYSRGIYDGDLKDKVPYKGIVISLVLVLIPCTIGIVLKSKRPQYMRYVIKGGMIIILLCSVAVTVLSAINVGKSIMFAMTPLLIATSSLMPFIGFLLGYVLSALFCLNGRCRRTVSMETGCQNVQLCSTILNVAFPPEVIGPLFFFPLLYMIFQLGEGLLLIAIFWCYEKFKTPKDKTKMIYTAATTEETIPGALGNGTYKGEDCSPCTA
As to the kind of experiment: Screening taurocholate uptake assay (96-well, [14C]taurocholate, 10 µM drug). Particulars: for B-score functional assay: screening taurocholate uptake, 10 µM drug.

Where [1] appears, read: ranking over the functional and the binding screening assay.
The mark [2] stands for this setting: combined ranking of functional and binding screening assays.

Take `CCOC(=O)n1ccn(C)c1=S` [Carbimazole]: the B-score functional assay is -0.455. For the same molecule, the Ranking score under setting [1] stood at 161.053.

The molecule `O=C(OCCOCCO)c1ccccc1Nc1cccc(C(F)(F)F)c1` [Etofenamate] showed a B-score functional assay of 1.885. In addition, the Ranking score under setting [1] turned out to be 165.439. `CC[N+](CC)(CC)CCC(O)(c1ccccc1)C1CCCCC1.[Cl-]` (centres unmarked) [Tridihexethyl chloride] yielded a B-score functional assay of 0.93. Also, the Ranking score under setting [2] was determined as 474.251. As to `CN(CCOc1ccc(CC2SC(=O)NC2=O)cc1)c1ccccn1.Cl` (centres unmarked) [Rosiglitazone Hydrochloride], the B-score functional assay is given as -7.292. Further, the Ranking score under setting [1] was found to be 31.1127. The like results for `COc1ccc(/C=C/C(=O)Nc2ccccc2C(=O)O)cc1OC` [Tranilast] were, in that order, -4.178 and 106.883. With `CN1C(C(=O)Nc2ccccn2)=C(O)c2sccc2S1(=O)=O` [Tenoxicam], the B-score functional assay stood at 0.141. Besides, under setting [2], the Ranking score came to 641.502.

`C[C@]12C=CC(=O)C=C1CC[C@@H]1[C@@H]2[C@@H](O)C[C@@]2(C)[C@H]1CC[C@]2(O)C(=O)CO` [Prednisolone] had a B-score functional assay of -0.52. Besides, under setting [2], the Ranking score is 486.999. `Cc1ccc(S(=O)(=O)NC(=O)NN2CC3CCCC3C2)cc1` (centres unmarked) [Gliclazide]: the B-score functional assay is -0.222. Under setting [1], this molecule registered a Ranking score of 246.057. In turn, `Nc1ccc(S(=O)(=O)c2ccc(N)cc2)cc1` [Dapsone] had a B-score functional assay of 0.012. In addition, the Ranking score under setting [1] stood at 186.888.

For the molecule `CC(=O)NCCCS(=O)(=O)O` [Acamprosate calcium], the B-score functional assay is reported as -0.535. Moreover, the Ranking score under setting [1] was 126.206.

`Cc1c(C)c2c(c(C)c1O)CCC(C)(C(=O)O)O2` (centres unmarked) [Trolox] had a B-score functional assay of -2.983. This molecule had a Ranking score under setting [1] of 114.263. For `C[C@H](CCC(=O)O)[C@H]1CC[C@H]2[C@@H]3[C@H](O)C[C@@H]4C[C@H](O)CC[C@]4(C)[C@H]3CC[C@]12C` [chenodeoxycholic acid], for the setting “1280 drugs at 10 µM, TC uptake and Myrcludex B binding screens combined”, the “position among the hits of the screen (combined ranking of both screening assays)” value is on record as at most 150.

The molecule `C#C[C@]1(O)CC[C@H]2[C@@H]3CCc4cc(OC)ccc4[C@H]3CC[C@@]21C` [Ethynylestradiol 3-methyl ether] gave a B-score functional assay of -0.011. In addition, the Ranking score under setting [2] stood at 552.584. With `CC1(C)O[C@@H]2C[C@H]3[C@@H]4CCC5=CC(=O)CC[C@]5(C)[C@@]4(F)[C@@H](O)C[C@]3(C)[C@]2(C(=O)CCl)O1` [Halcinonide], the B-score functional assay came out at 0.608. In addition, the Ranking score under setting [2] came out at 634.219.

For `O=C1c2cccc(O)c2C(=O)c2c(O)cccc21` [1,8-Dihydroxyanthraquinone], under setting [2], the Ranking score is recorded as 1173.42. Besides, the B-score functional assay (B-score) is 1.277. The molecule `COCC1=C(C(=O)OC(C)OC(=O)OC(C)C)N2C(=O)[C@@H](NC(=O)/C(=N\OC)c3csc(N)n3)[C@H]2SC1` (some centres unmarked) [Cefpodoxime proxetil] came in with a B-score functional assay of -0.201. Further, the Ranking score under setting [2] is 640.176. `CCCOc1ccccc1-c1nc2nn[nH]c2c(=O)[nH]1` [Zaprinast] showed a B-score functional assay of -1.838. The same molecule gave a Ranking score under setting [1] of 188.481. In turn, `CCOC(=O)N1CCC(=C2c3ccc(Cl)cc3CCc3cccnc32)CC1` [Loratadine] had a B-score functional assay of -3.222. For the same molecule, under setting [1], the Ranking score came out at 78.3326.

`CCc1oc2ccccc2c1C(=O)c1cc(Br)c(O)c(Br)c1` [Benzbromarone] showed a B-score functional assay of -5.011. For the same molecule, the Ranking score under setting [1] was 148.825. In turn, `CC(=O)[C@H]1CC[C@H]2[C@@H]3C=CC4=CC(=O)CC[C@@]4(C)[C@@H]3CC[C@]12C` [Dydrogesterone] yielded a B-score functional assay of -1.016. In addition, the Ranking score under setting [2] is given as 511.223. With `c1ccc2c(c1)OCC(C1=NCCN1)O2` (centres unmarked) [Idazoxan hydrochloride], the B-score functional assay is -2.926. The molecule also had a Ranking score under setting [1] of 198.728. Consider `C#C[C@]1(OC(C)=O)CC[C@H]2[C@@H]3CCC4=CC(=NO)CC[C@@H]4[C@H]3CC[C@@]21CC` (mixture of isomers) [Norgestimate], for which the B-score functional assay is reported as -2.463. This molecule also gave a Ranking score under setting [1] of 95.4987. With `CC[C@H]1OC(=O)[C@H](C)[C@@H](O[C@H]2C[C@@](C)(OC)[C@@H](O)[C@H](C)O2)[C@H](C)[C@@H](O[C@@H]2O[C@H](C)C[C@H](N(C)C)[C@H]2O)[C@](C)(O)C[C@@H](C)/C(=N\OCOCCOC)[C@H](C)[C@@H](O)[C@]1(C)O` [Roxithromycin], the B-score functional assay was 1.396. Under setting [1], this molecule gave a Ranking score of 275.763.

Regarding `CC1Cc2ccccc2N1NC(=O)c1ccc(Cl)c(S(N)(=O)=O)c1` (centres unmarked) [Indapamide], the B-score functional assay is listed as -0.108. In addition, the Ranking score under setting [2] is given as 559.557.

`CCCCCC[C@H]1C(=O)O[C@H](C)[C@H](NC(=O)c2cccc(NC=O)c2O)C(=O)O[C@@H](C)[C@@H]1OC(=O)CC(C)C` [Antimycin A] returned a B-score functional assay of -8.175. The molecule further yielded a Ranking score under setting [1] of 15.6525. On to `Oc1cc(Cl)ccc1Oc1ccc(Cl)cc1Cl` [Triclosan], for which the B-score functional assay is reported as -1.77. The molecule further yielded a Ranking score under setting [1] of 149.432. Regarding `CS(=O)(=O)c1ccc(C2=C(c3ccccc3)C(=O)OC2)cc1` [Rofecoxib], the B-score functional assay was found to be 1.027. Further, under setting [1], the Ranking score is recorded as 212.386.

Take `CN(C)c1nc(N(C)C)nc(N(C)C)n1` [Altretamine]: the B-score functional assay is recorded as -0.464. Further, under setting [2], the Ranking score was 605.153. Molecule `CO[C@@]1(NC(=O)C(C(=O)O)c2ccc(O)cc2)C(=O)N2C(C(=O)O)=C(CSc3nnnn3C)CO[C@@H]21` (some centres unmarked) [Moxalactam disodium salt] came in with a B-score functional assay of -0.667. Further, the Ranking score under setting [2] was 623.639. With `Cc1ncc([N+](=O)[O-])n1CC(O)CCl` (centres unmarked) [Ornidazole], the B-score functional assay is recorded as -1.861. Under setting [1], this molecule yielded a Ranking score of 260.803. `Cc1ccc(S(=O)(=O)NC(=O)NN2CCCCCC2)cc1` [Tolazamide] gave a B-score functional assay of -0.681. The Ranking score under setting [2] amounted to 601.655. Regarding `CCOC(=O)c1ccc(N)cc1` [Benzocaine], the B-score functional assay is on record as -1.326. Under setting [1], this molecule displayed a Ranking score of 153.542. `CC1=C(/C=C/C(C)=C/C=C/C(C)=C\C(=O)O)C(C)(C)CCC1` [Isotretinoin] gave a B-score functional assay of -0.503. The molecule further came in with a Ranking score under setting [1] of 204.751.

In turn, `COc1cc(C(=O)OCCCN2CCCN(CCCOC(=O)c3cc(OC)c(OC)c(OC)c3)CC2)cc(OC)c1OC.Cl.Cl` [Dilazep dihydrochloride] came in with a B-score functional assay of -0.659. The Ranking score under setting [2] turned out to be 649.692. Turning to `C[C@]12N[C@H](Cc3ccccc31)c1ccccc12` [Dizocilpine maleate], the B-score functional assay was -0.357. Besides, the Ranking score under setting [2] is 484.42.

As for `CCc1nc(N)nc(N)c1-c1ccc(Cl)cc1` [Pyrimethamine], the Ranking score under setting [2] is 1154.81. Where the note is “B-score”, this molecule gave a B-score functional assay of 2.36. Consider `Cl.Cl.c1ccc2c(c1)CCCc1cc(NCCN3CCOCC3)nnc1-2`, for which the B-score functional assay is recorded as -1.983. Also, the Ranking score under setting [1] is recorded as 77.0714. For `CC(=O)SCC(Cc1ccccc1)C(=O)NCC(=O)OCc1ccccc1` (centres unmarked) [Racecadotril], in that order: -1.398 and 264.726.

Regarding `CS(=O)(=O)O.Cc1ccc2c(c1)c1c3n2CCNC3CCC1` (centres unmarked) [Pirlindole mesylate], the B-score functional assay was determined as 0.129. Further, the Ranking score under setting [2] is on record as 496.839.

`CC(O)(CS(=O)(=O)c1ccc(F)cc1)C(=O)Nc1ccc(C#N)c(C(F)(F)F)c1` (centres unmarked) [Bicalutamide]: the B-score functional assay is reported as -0.361. The molecule further had a Ranking score under setting [1] of 258.616. For the molecule `COC1=C(OC)C(=O)C(CCCCCCCCCCO)=C(C)C1=O` [Idebenone], the B-score functional assay is listed as 0.176. Under setting [2], the Ranking score came to 488.87. As to `CC(=O)CCCCn1c(=O)c2c(ncn2C)n(C)c1=O` [Pentoxifylline], the B-score functional assay is reported as -0.027. Further, the Ranking score under setting [2] was found to be 582.174. For `CCN(CC)C(=O)c1ccc(O)c(OC)c1` [Ethamivan], in that order: -1.181 and 538.826. `C=C1/C(=C\C=C2/CCC[C@]3(C)[C@@H]([C@H](C)CCCC(C)C)CC[C@@H]23)C[C@@H](O)C[C@@H]1O` [Alfacalcidol] had a B-score functional assay of -0.117. Moreover, the Ranking score under setting [2] is on record as 594.47. `COc1cc(C)nc(-n2nc(C)cc2OC)n1` [Epirizole] had a B-score functional assay of 0.634. Under setting [1], this molecule had a Ranking score of 209.705. For `CN1CCCN=C1/C=C/c1cccc(O)c1.O=C(O)c1cc2ccccc2c(Cc2c(O)c(C(=O)O)cc3ccccc23)c1O` [Oxantel pamoate], in that order: -5.305 and 130.111. The molecule `CN(Cc1cnc2nc(N)nc(N)c2n1)c1ccc(C(=O)N[C@@H](CCC(=O)O)C(=O)O)cc1` (racemic) [Amethopterin (R,S)] registered a B-score functional assay of -0.795. The Ranking score under setting [2] came out at 579.365. `OCCN1CCN(CCCN2c3ccccc3Sc3ccc(Cl)cc32)CC1` [Perphenazine] had a B-score functional assay of -0.257. Moreover, the Ranking score under setting [1] was 88.5268.
